Values joined by “and” are separate entries in the source; they are usually repeats but may differ in a detail not shown here. Identical values can stand only once. Toxic doses and inconclusive results are not listed.
System: L1210 leukemia ip in BDF1 mice, survival T/C
Assay: NCI In Vivo Anticancer Drug Screen. Data for tumor model L1210 Leukemia (intraperitoneal) in B6D2F1 (BDF1) mice
Conditions: higher = longer survival
In short: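 Read-out is survival time, reported as the treated-group measurement over the vehicle-control measurement.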

CS(=O)(=O)OCCCNCCCOS(C)(=O)=O
T/C (endpoint: mean survival time, dose: 65.0 mg/kg/injection, schedule: Q04DX003 (oral), vehicle: saline): 120 % of control
T/C (endpoint: mean survival time, dose: 65.0 mg/kg/injection, schedule: Q08DX002 (ip), vehicle: saline): 226 % of control
T/C (endpoint: mean survival time, dose: 80.0 mg/kg/injection, schedule: Q01DX009 (ip), vehicle: saline): 94 % of control and 122 % of control
T/C (endpoint: mean survival time, dose: 100.0 mg/kg/injection, schedule: Q01DX001 (ip), vehicle: saline): 150 % of control
T/C (endpoint: mean survival time, dose: 108.0 mg/kg/injection, schedule: Q01DX001 (ip), vehicle: saline): 193 % of control and 337 % of control
T/C (endpoint: mean survival time, dose: 108.0 mg/kg/injection, schedule: Q01DX001 (oral), vehicle: saline): 110 % of control
T/C (endpoint: mean survival time, dose: 108.0 mg/kg/injection, schedule: Q01DX001 (sc), vehicle: saline): 115 % of control
T/C (endpoint: mean survival time, dose: 108.0 mg/kg/injection, schedule: Q01DX003 (ip), vehicle: saline): 247 % of control and 310 % of control
T/C (endpoint: mean survival time, dose: 108.0 mg/kg/injection, schedule: Q01DX005 (ip), vehicle: saline): 280 % of control
T/C (endpoint: mean survival time, dose: 108.0 mg/kg/injection, schedule: Q01DX009 (sc), vehicle: saline): 93 % of control
T/C (endpoint: mean survival time, dose: 108.0 mg/kg/injection, schedule: Q04DX003 (ip), vehicle: clinical formulation): 108 % of control
T/C (endpoint: mean survival time, dose: 108.0 mg/kg/injection, schedule: Q04DX003 (ip), vehicle: saline): 267 % of control and 422 % of control
T/C (endpoint: mean survival time, dose: 108.0 mg/kg/injection, schedule: Q04DX003 (ip), vehicle: water): 100 % of control
T/C (endpoint: mean survival time, dose: 108.0 mg/kg/injection, schedule: Q04DX003 (iv), vehicle: saline): 113 % of control
T/C (endpoint: mean survival time, dose: 180.0 mg/kg/injection, schedule: Q01DX001 (ip), vehicle: saline): 246 % of control
T/C (endpoint: mean survival time, dose: 180.0 mg/kg/injection, schedule: Q01DX001 (oral), vehicle: saline): 120 % of control
T/C (endpoint: mean survival time, dose: 180.0 mg/kg/injection, schedule: Q01DX001 (sc), vehicle: saline): 115 % of control
T/C (endpoint: mean survival time, dose: 180.0 mg/kg/injection, schedule: Q01DX003 (ip), vehicle: saline): 95 % of control and 103 % of control
T/C (endpoint: mean survival time, dose: 180.0 mg/kg/injection, schedule: Q04DX003 (iv), vehicle: saline): 118 % of control
T/C (endpoint: mean survival time, dose: 180.0 mg/kg/injection, schedule: Q04DX003 (oral), vehicle: saline): 95 % of control
T/C (endpoint: mean survival time, dose: 180.0 mg/kg/injection, schedule: Q08DX002 (ip), vehicle: saline): 421 % of control
T/C (endpoint: mean survival time, dose: 200.0 mg/kg/injection, schedule: Q01DX001 (ip), vehicle: saline): 157 % of control and 176 % of control and 200 % of control
T/C (endpoint: median survival time, dose: 12.5 mg/kg/injection, schedule: Q01DX009 (ip), vehicle: saline): 115 % of control
T/C (endpoint: median survival time, dose: 23.0 mg/kg/injection, schedule: Q01DX005 (ip), vehicle: saline): 122 % of control
T/C (endpoint: median survival time, dose: 25.0 mg/kg/injection, schedule: Q01DX009 (ip), vehicle: saline): 150 % of control
T/C (endpoint: median survival time, dose: 39.0 mg/kg/injection, schedule: Q01DX005 (ip), vehicle: saline): 155 % of control
T/C (endpoint: median survival time, dose: 39.0 mg/kg/injection, schedule: Q01DX005 (sc), vehicle: saline): 122 % of control
T/C (endpoint: median survival time, dose: 39.0 mg/kg/injection, schedule: Q01DX009 (ip), vehicle: saline): 150 % of control
T/C (endpoint: median survival time, dose: 50.0 mg/kg/injection, schedule: Q01DX009 (ip), vehicle: saline): 180 % of control
T/C (endpoint: median survival time, dose: 50.0 mg/kg/injection, schedule: Q04DX003 (ip), vehicle: saline): 161 % of control
T/C (endpoint: median survival time, dose: 65.0 mg/kg/injection, schedule: Q01DX005 (ip), vehicle: saline): 155 % of control
T/C (endpoint: median survival time, dose: 65.0 mg/kg/injection, schedule: Q01DX009 (ip), vehicle: saline): 100 % of control and 115 % of control
T/C (endpoint: median survival time, dose: 65.0 mg/kg/injection, schedule: Q04DX003 (ip), vehicle: saline): 155 % of control
T/C (endpoint: median survival time, dose: 100.0 mg/kg/injection, schedule: Q04DX003 (ip), vehicle: saline): 177 % of control and 666 % of control
T/C (endpoint: median survival time, dose: 108.0 mg/kg/injection, schedule: Q01DX001 (ip), vehicle: saline): 155 % of control
T/C (endpoint: median survival time, dose: 108.0 mg/kg/injection, schedule: Q01DX005 (ip), vehicle: saline): 100 % of control
T/C (endpoint: median survival time, dose: 108.0 mg/kg/injection, schedule: Q01DX005 (sc), vehicle: saline): 88 % of control
T/C (endpoint: median survival time, dose: 108.0 mg/kg/injection, schedule: Q04DX003 (ip), vehicle: saline): 188 % of control
T/C (endpoint: median survival time, dose: 200.0 mg/kg/injection, schedule: Q04DX003 (ip), vehicle: saline): 100 % of control

Reference: PubChem BioAssay AID248 (DTP/NCI, 2004)
